Patent US20260144769A1, “4-PHENYLBUTYRATE RESTORED GABA UPTAKE AND REDUCED SEIZURES IN SLC6A1 VARIANT-MEDIATED DISORDERS” (Vanderbilt University, priority 2022, published 2026)

System: GAT-1 in patient astrocytes
Assay: 3H GABA uptake, patient iPSC derived astrocytes
Assay type: cell-based, human
Conditions: PBA 2 mM
Method: Live images of human neural progenitor cells (NPCs), astrocytes and GABAergic inhibitory neurons differentiated from the human induced pluripotent stem cells (iPSCs) on the day of experiment. […] The DMSO treated corrected or patient cells was taken as 1. […] GABA flux was measured after 30 min transport at room temperature. The influx of GABA, expressed in pmol/μg protein/min, was averaged from duplicates for each condition and for each transfection. The average counting was DMSO treated condition taken as 1. In FIG. 5B, FIG. 5D and FIG. 5F, 966 stands for CI-966 (50 μM) and 711 stands for NNC-711 (35 μM) that was applied 30 min to the astrocytes transfected with the wildtype GAT-1^YFP before preincubation and removed during preincubation. In FIGS. 5B and D, ***p<0.001 vs. corrected DMSO treated. § § <0.01, § § § p<0.001 vs. patient DMSO treated. […] In FIGS. 5B-E, n=4-8 batches of cells. In FIG. 5F, n=4-5 different transfections). Unpaired t test was used for FIG. 5C and FIG. 5E. […] Values were expressed as mean±S.E.M.). […]
Briefly, cells were cultured in […] dishes for 3 days before the GABA uptake experiment in DMEM with 10% fetal bovine serum and 1% penicillin/streptomycin. […] Glacial acetic acid was added, and lysates were then determined on a liquid scintillator with QuantaSmart. […]

Structure (SMILES): O=C(O)CCCc1ccccc1 [PBA, 4-phenylbutyric acid]
- GABA uptake normalized to its DMSO treated (24 hrs): 1.387±0.08
- GABA uptake of the patient cells as % of the corrected cells (24 hrs (57% with DMSO)): 81%
